Broadly, the EC50 is the concentration at which the effect is half-maximal. The term CC50 denotes the concentration giving 50% cytotoxicity. Read a low CC50 as greater toxicity to the cells. Broadly, the IC50 is the concentration that gives 50% inhibition. A low value points to greater potency in that assay.

The values below come from PMC7016291 (Acta Pharmaceutica Sinica. B, 2019).

Data set [1] concerns HIV-2 (ROD). The experiment in a line: Anti-HIV activity in MT-4 cells. The class given is cell-based. The following applies: Human immunodeficiency virus 2, MT4, read-out: EC50 ROD.
Data set [2] can be described thus: Cytotoxicity in uninfected MT-4 cells. The format is cell-based. Conditions: human, uninfected MT-4 cells.
Data set [3] deals with WT HIV-1 RT (Human immunodeficiency virus type 1 group M subtype B, UniProt P03366). The experiment in a line: HIV-1 RT inhibition assay. The class given is biochemical.
Data set [4] deals with HIV-1 RT RNase H (Human immunodeficiency virus type 1 group M subtype B, UniProt P03366). The experiment in a line: HIV-1 RT RNase H inhibition. The format is biochemical.

As for `Cc1cc(-c2ccc(C#N)cc2)cc(C)c1Nc1nc(Nc2ccc(C#N)cc2)nc(NC2CC2)n1` [Compound 6a, 4ʹ-((4-((4-Cyanophenyl)amino)-6-(cyclopropylamino)-1,3,5-triazin-2-yl)amino)-3ʹ,5ʹ-dimethyl-[1,1ʹ-biphenyl]-4-carbonitrile], the EC50 in data set [1] was determined as 26.5 µM. Further, in data set [2], the CC50 at 4 days is greater than 125 µM. The figures for the IC50 in data set [3] and in data set [4] were 0.0741 µM and greater than 1270 µM, respectively.
In the same order, the values of `Cc1cc(-c2ccc(C#N)cc2)cc(C)c1Nc1nc(Nc2ccc(C#N)cc2)nc(N2CCNCC2)n1` [Compound 6h, 4ʹ-((4-((4-Cyanophenyl)amino)-6-(piperazin-1-yl)-1,3,5-triazin-2-yl)amino)-3ʹ,5ʹ-dimethyl-[1,1ʹ-biphenyl]-4-carbonitrile] are greater than 9.24 µM, 9.24 ± 5.5 µM, 0.341 µM and greater than 1200 µM.
The matching figures for `Cc1cc(-c2ccc(C#N)cc2)cc(C)c1Oc1nc(NCCN2CCN(C)CC2)nc(Nc2ccc(C#N)cc2)n1` [Compound 5k, 4ʹ-((4-((4-Cyanophenyl)amino)-6-((2-(4-methylpiperazin-1-yl)ethyl)amino)-1,3,5-triazin-2-yl)oxy)-3ʹ,5ʹ-dimethyl-[1,1ʹ-biphenyl]-4-carbonitrile]: greater than 14.1 µM, 14.1 ± 3.47 µM, 0.658 µM and greater than 1070 µM.
`Cc1cc(-c2ccc(C#N)cc2)cc(C)c1Oc1nc(Nc2ccc(C#N)cc2)nc(N2CCOCC2)n1` [Compound 5e, 4ʹ-((4-((4-Cyanophenyl)amino)-6-morpholino-1,3,5-triazin-2-yl)oxy)-3ʹ,5ʹ-dimeth-yl-[1,1ʹ-biphenyl]-4-carbonitrile]: the EC50 in data set [1] came out at 3.61 ± 0.55 µM. In data set [2], this compound displayed a CC50 at 4 days greater than 125 µM. In addition, the IC50 in data set [3] is 0.195 µM; in data set [4] it was 659 µM. In addition, the “activity against RNase H” value in data set [4] is listed as “slight activity”.
As to `Cc1cc(-c2ccc(C#N)cc2)cc(C)c1Oc1nc(Nc2ccc(C#N)cc2)nc(N2CCCC2CO)n1` (centres unmarked) [Compound 5g, 4ʹ-((4-((4-Cyanophenyl)amino)-6-(2-(hydroxymethyl)pyrrolidin-1-yl)-1,3,5-triazin-2-yl)oxy)-3ʹ,5ʹ-dimethyl-[1,1ʹ-biphenyl]-4-carbonitrile], the EC50 in data set [1] stood at 1.56 ± 0.49 µM. Further, the CC50 at 4 days in data set [2] is greater than 125 µM. Also, the IC50 in data set [3] is 0.28 µM; in data set [4] it was greater than 1160 µM.
The matching figures for `COC(=O)[C@@H]1CCCN1c1nc(Nc2ccc(C#N)cc2)nc(Nc2c(C)cc(-c3ccc(C#N)cc3)cc2C)n1` [Compound 6f, Methyl (4-((4ʹ-cyano-3,5-dimethyl-[1,1ʹ-biphenyl]-4-yl)amino)-6-((4-cyanophenyl)amino)-1,3,5-triazin-2-yl)-L-prolinate]: greater than 125 µM, greater than 125 µM, 0.253 µM and greater than 1100 µM.
In the same order, the values of `COC(=O)[C@@H]1CCCN1c1nc(Nc2ccc(C#N)cc2)nc(Oc2c(C)cc(-c3ccc(C#N)cc3)cc2C)n1` [Compound 5d, Methyl (4-((4ʹ-cyano-3,5-dimethyl-[1,1ʹ-biphenyl]-4-yl)oxy)-6-((4-cyanophenyl)-amino)-1,3,5-triazin-2-yl)-L-prolinate] are greater than 2.23 µM, 2.23 ± 1.09 µM, 0.273 µM and greater than 1100 µM.
In the same order, the values of `Cc1cc(-c2ccc(C#N)cc2)cc(C)c1Nc1nc(NCCN2CCN(C)CC2)nc(Nc2ccc(C#N)cc2)n1` [Compound 6n, 4ʹ-((4-((4-Cyanophenyl)amino)-6-((2-(4-methylpiperazin-1-yl)ethyl)amino)-1,3,5-triazin-2-yl)amino)-3ʹ,5ʹ-dimethyl-[1,1ʹ-biphenyl]-4-carbonitrile] are greater than 2.34 µM, 2.34 ± 0.64 µM, 0.156 µM and greater than 1070 µM.
With `Cc1cc(-c2ccc(C#N)cc2)cc(C)c1Nc1nc(Nc2ccc(C#N)cc2)nc(N2CCOCC2)n1` [Compound 6g, 4ʹ-((4-((4-Cyanophenyl)amino)-6-morpholino-1,3,5-triazin-2-yl)amino)-3ʹ,5ʹ-dimethyl-[1,1ʹ-biphenyl]-4-carbonitrile], in data set [1], the concentration giving a half-maximal response (EC50) worked out at 39.9 µM. Moreover, in data set [2], the CC50 at 4 days was greater than 125 µM. Also, the IC50 is 0.137 µM in data set [3] and greater than 1190 µM in data set [4].
In the same order, the values of `Cc1cc(-c2ccc(C#N)cc2)cc(C)c1Nc1nc(Nc2ccc(C#N)cc2)nc(N2CCCC2CO)n1` (centres unmarked) [Compound 6j, 4ʹ-((4-((4-Cyanophenyl)amino)-6-(2-(hydroxymethyl)pyrrolidin-1-yl)-1,3,5-triazin-2-yl)amino)-3ʹ,5ʹ-dimethyl-[1,1ʹ-biphenyl]-4-carbonitrile] are 15.7 µM, 62.9 ± 7.99 µM, 0.157 µM and greater than 1160 µM.
On to `Cc1cc(-c2ccc(C#N)cc2)cc(C)c1Oc1nc(Nc2ccc(C#N)cc2)nc(N2CCC(O)CC2)n1` [Compound 5i, 4ʹ-((4-((4-Cyanophenyl)amino)-6-(4-hydroxypiperidin-1-yl)-1,3,5-triazin-2-yl)-oxy)-3ʹ,5ʹ-dimethyl-[1,1ʹ-biphenyl]-4-carbonitrile], for which the EC50 in data set [1] amounted to 1.51 ± 0.26 µM. For the same compound, in data set [2], the CC50 at 4 days is 14.9 ± 7.89 µM. This compound had an IC50 in data set [3] of 0.282 µM. In addition, in data set [4], inhibition was half-maximal at 500 µM (IC50) and the “activity against RNase H” value is recorded as “slight activity”.
Regarding `Cc1cc(-c2ccc(C#N)cc2)cc(C)c1Nc1nc(Nc2ccc(C#N)cc2)nc(N2CCC(O)CC2)n1` [Compound 6l, 4ʹ-((4-((4-Cyanophenyl)amino)-6-(4-hydroxypiperidin-1-yl)-1,3,5-triazin-2-yl)-amino)-3ʹ,5ʹ-dimethyl-[1,1ʹ-biphenyl]-4-carbonitrile], the half-maximal effective concentration (EC50) in data set [1] is greater than 5.71 µM. In data set [2], this compound gave a CC50 at 4 days of 5.71 ± 3.93 µM. Moreover, the figures for the IC50 in data set [3] and in data set [4] were 0.223 µM and greater than 1160 µM, respectively.
In the same order, the values of `Cc1cc(-c2ccc(C#N)cc2)cc(C)c1Nc1nc(Nc2ccc(C#N)cc2)nc(NC2CCOCC2)n1` [Compound 6c, 4ʹ-((4-((4-Cyanophenyl)amino)-6-((tetrahydro-2H-pyran-4-yl)amino)-1,3,5-triazin-2-yl)amino)-3ʹ,5ʹ-dimethyl-[1,1ʹ-biphenyl]-4-carbonitrile] are 40 µM, greater than 125 µM, 0.246 µM and greater than 1160 µM.
The matching figures for `Cc1cc(-c2ccc(C#N)cc2)cc(C)c1Nc1nc(NCCN2CCOCC2)nc(Nc2ccc(C#N)cc2)n1` [Compound 6m, 4ʹ-((4-((4-Cyanophenyl)amino)-6-((2-morpholinoethyl)amino)-1,3,5-triazin-2-yl)-amino)-3ʹ,5ʹ-dimethyl-[1,1ʹ-biphenyl]-4-carbonitrile]: greater than 13.9 µM, 13.9 ± 10.7 µM, 0.176 µM and greater than 995 µM.
The matching figures for `Cc1cc(-c2ccc(C#N)cc2)cc(C)c1Oc1nc(Nc2ccc(C#N)cc2)nc(N2CCNCC2)n1` [Compound 5f, 4ʹ-((4-((4-Cyanophenyl)amino)-6-(piperazin-1-yl)-1,3,5-triazin-2-yl)oxy)-3ʹ,5ʹ-dimethyl-[1,1ʹ-biphenyl]-4-carbonitrile]: greater than 9.8 µM, 9.8 ± 7.31 µM, 0.482 µM and greater than 1190 µM.
